Species on record: Rattus norvegicus
Assay: DrugMatrix - Regimen: Daily Repeat
Type: toxicity, organism-based, Sprague-Dawley
Parameters: regimen Daily Repeat, gender Male, age 6-8 weeks
Conditions: in vivo, po, route oral GAVAGE, vehicle 100 % SALINE; for ABSOLUTE BASOPHIL / ABSOLUTE EOSINOPHIL / ABSOLUTE LYMPHOCYTE / ABSOLUTE MONOCYTE / BASOPHIL / EOSINOPHIL / ERYTHROCYTE COUNT / HEMATOCRIT / HEMOGLOBIN / LEUKOCYTE COUNT / LYMPHOCYTE / MEAN CORPUSCULAR HEMOGLOBIN / MEAN CORPUSCULAR HEMOGLOBIN CONCENTRATION / MEAN CORPUSCULAR VOLUME / MONOCYTE / NEUTROPHIL / PLATELET COUNT: tissue Blood; for ALANINE AMINOTRANSFERASE / ALBUMIN / ALKALINE PHOSPHATASE / ASPARTATE AMINOTRANSFERASE / BLOOD UREA NITROGEN / CARBON DIOXIDE / CHLORIDE / CHOLESTEROL / CREATINE PHOSPHOKINASE / CREATININE / GLUCOSE / LACTATE DEHYDROGENASE / LIPASE / PHOSPHORUS / POTASSIUM / SODIUM / TOTAL BILIRUBIN / TOTAL PROTEIN / URIC ACID: tissue Plasma
[1] = 0 mg/kg, 72 h, dose level Control, time 3 day
[2] = 0 mg/kg, 120 h, dose level Control, time 5 day
[3] = 0 mg/kg, […], dose level Control, time 14 day
[4] = […], 72 h, dose 7.5 mg/Kg, dose level High, time 3 day
[5] = […], 120 h, dose 7.5 mg/Kg, dose level High, time 5 day

Nc1ncnc2c1ncn2[C@@H]1O[C@H](CO)[C@@H](O)[C@H]1F [2'-BETA-FLUORO-2',3'-DEOXYADENOSINE]
ABSOLUTE BASOPHIL [1]: 140 cells/µL | ABSOLUTE EOSINOPHIL [1]: 43.3 cells/µL | ABSOLUTE LYMPHOCYTE [1]: 7570 cells/µL | ABSOLUTE MONOCYTE [1]: 160 cells/µL | BASOPHIL [1]: 1.47% | EOSINOPHIL [1]: 0.47% | ERYTHROCYTE COUNT [1]: 6.68 x10E6/uL | HEMATOCRIT [1]: 44.33% | HEMOGLOBIN [1]: 14.43 G/DL | LEUKOCYTE COUNT [1]: 9.33 x10E3/uL | LYMPHOCYTE [1]: 81.23% | MEAN CORPUSCULAR HEMOGLOBIN [1]: 21.67 pg | MEAN CORPUSCULAR HEMOGLOBIN CONCENTRATION [1]: 32.6 G/DL | MEAN CORPUSCULAR VOLUME [1]: 66.43 fL | MONOCYTE [1]: 1.73% | NEUTROPHIL [1]: 14.7% | PLATELET COUNT [1]: 1341.67 x10E3/uL | ALANINE AMINOTRANSFERASE [1]: 31 u/L | ALBUMIN [1]: 4.03 G/DL | ALKALINE PHOSPHATASE [1]: 447 u/L | ASPARTATE AMINOTRANSFERASE [1]: 61.33 u/L | BLOOD UREA NITROGEN [1]: 15.67 mg/dL | CARBON DIOXIDE [1]: 43 mmol/L | CHLORIDE [1]: 103.33 MEQ/L | CHOLESTEROL [1]: 83.67 mg/dL | CREATINE PHOSPHOKINASE [1]: 174.33 u/L | CREATININE [1]: 0.4 mg/dL | GLUCOSE [1]: 173 mg/dL | LACTATE DEHYDROGENASE [1]: 87.67 u/L | LIPASE [1]: 17.33 u/L | PHOSPHORUS [1]: 10.27 mg/dL | POTASSIUM [1]: 6.47 MEQ/L | SODIUM [1]: 143.67 MEQ/L | TOTAL BILIRUBIN [1]: 0.37 mg/dL | TOTAL PROTEIN [1]: 6.63 G/DL | URIC ACID [1]: 1.03 mg/dL | ABSOLUTE BASOPHIL [2]: 53.3 cells/µL | ABSOLUTE EOSINOPHIL [2]: 210 cells/µL | ABSOLUTE LYMPHOCYTE [2]: 8220 cells/µL | ABSOLUTE MONOCYTE [2]: 200 cells/µL | BASOPHIL [2]: 0.53% | EOSINOPHIL [2]: 2.1% | ERYTHROCYTE COUNT [2]: 7 x10E6/uL | HEMATOCRIT [2]: 44% | HEMOGLOBIN [2]: 14.53 G/DL | LEUKOCYTE COUNT [2]: 10.44 x10E3/uL | LYMPHOCYTE [2]: 78.07% | MEAN CORPUSCULAR HEMOGLOBIN [2]: 20.77 pg | MEAN CORPUSCULAR HEMOGLOBIN CONCENTRATION [2]: 33 G/DL | MEAN CORPUSCULAR VOLUME [2]: 62.87 fL | MONOCYTE [2]: 1.87% | NEUTROPHIL [2]: 16.8% | PLATELET COUNT [2]: 1104.33 x10E3/uL | ALANINE AMINOTRANSFERASE [2]: 31.67 u/L | ALBUMIN [2]: 3.93 G/DL | ALKALINE PHOSPHATASE [2]: 394.67 u/L | ASPARTATE AMINOTRANSFERASE [2]: 65.67 u/L | BLOOD UREA NITROGEN [2]: 15.67 mg/dL | CARBON DIOXIDE [2]: 40.67 mmol/L | CHLORIDE [2]: 104.33 MEQ/L | CHOLESTEROL [2]: 66.33 mg/dL | CREATINE PHOSPHOKINASE [2]: 346.67 u/L | CREATININE [2]: 0.33 mg/dL | GLUCOSE [2]: 176.67 mg/dL | LACTATE DEHYDROGENASE [2]: 109 u/L | LIPASE [2]: 14.33 u/L | PHOSPHORUS [2]: 11.17 mg/dL | POTASSIUM [2]: 6.53 MEQ/L | SODIUM [2]: 146 MEQ/L | TOTAL BILIRUBIN [2]: 0.37 mg/dL | URIC ACID [2]: 0.97 mg/dL | ABSOLUTE BASOPHIL [3]: 93.3 cells/µL | ABSOLUTE EOSINOPHIL [3]: 80 cells/µL | ABSOLUTE LYMPHOCYTE [3]: 6890 cells/µL | ABSOLUTE MONOCYTE [3]: 170 cells/µL | BASOPHIL [3]: 1% | EOSINOPHIL [3]: 0.83% | ERYTHROCYTE COUNT [3]: 7.03 x10E6/uL | HEMATOCRIT [3]: 43.4% | HEMOGLOBIN [3]: 14.83 G/DL | LEUKOCYTE COUNT [3]: 8.94 x10E3/uL | LYMPHOCYTE [3]: 77.93% | MEAN CORPUSCULAR HEMOGLOBIN [3]: 21.1 pg | MEAN CORPUSCULAR HEMOGLOBIN CONCENTRATION [3]: 34.17 G/DL | MEAN CORPUSCULAR VOLUME [3]: 61.77 fL | MONOCYTE [3]: 1.33% | NEUTROPHIL [3]: 18% | PLATELET COUNT [3]: 1097.33 x10E3/uL | ALANINE AMINOTRANSFERASE [3]: 32 u/L | ALBUMIN [3]: 3.83 G/DL | ALKALINE PHOSPHATASE [3]: 334.67 u/L | ASPARTATE AMINOTRANSFERASE [3]: 69.33 u/L | BLOOD UREA NITROGEN [3]: 16 mg/dL | CARBON DIOXIDE [3]: 40 mmol/L | CHLORIDE [3]: 105.67 MEQ/L | CHOLESTEROL [3]: 70.33 mg/dL | CREATINE PHOSPHOKINASE [3]: 144.67 u/L | CREATININE [3]: 0.3 mg/dL | GLUCOSE [3]: 177.67 mg/dL | LACTATE DEHYDROGENASE [3]: 97.67 u/L | LIPASE [3]: 16.33 u/L | PHOSPHORUS [3]: 10.83 mg/dL | POTASSIUM [3]: 5.77 MEQ/L | SODIUM [3]: 143.33 MEQ/L | TOTAL BILIRUBIN [3]: 0.33 mg/dL | TOTAL PROTEIN [3]: 6.37 G/DL | URIC ACID [3]: 0.17 mg/dL | ABSOLUTE BASOPHIL [4]: 280 cells/µL | ABSOLUTE EOSINOPHIL [4]: 220 cells/µL | ABSOLUTE LYMPHOCYTE [4]: 9970 cells/µL | ABSOLUTE MONOCYTE [4]: 370 cells/µL | BASOPHIL [4]: 2.3% | EOSINOPHIL [4]: 2.07% | ERYTHROCYTE COUNT [4]: 6.92 x10E6/uL | HEMATOCRIT [4]: 45.73% | HEMOGLOBIN [4]: 14.7 G/DL | LEUKOCYTE COUNT [4]: 12.17 x10E3/uL | LYMPHOCYTE [4]: 81.03% | MEAN CORPUSCULAR HEMOGLOBIN [4]: 21.23 pg | MEAN CORPUSCULAR HEMOGLOBIN CONCENTRATION [4]: 32.1 G/DL | MEAN CORPUSCULAR VOLUME [4]: 66.07 fL | MONOCYTE [4]: 3.03% | NEUTROPHIL [4]: 11.03% | PLATELET COUNT [4]: 1214.67 x10E3/uL | ALANINE AMINOTRANSFERASE [4]: 43.33 u/L | ALBUMIN [4]: 3.93 G/DL | ALKALINE PHOSPHATASE [4]: 434.67 u/L | ASPARTATE AMINOTRANSFERASE [4]: 98.33 u/L | BLOOD UREA NITROGEN [4]: 16 mg/dL | CARBON DIOXIDE [4]: 43.33 mmol/L | CHLORIDE [4]: 103 MEQ/L | CHOLESTEROL [4]: 76.33 mg/dL | CREATINE PHOSPHOKINASE [4]: 214.67 u/L | CREATININE [4]: 0.43 mg/dL | GLUCOSE [4]: 167.67 mg/dL | LACTATE DEHYDROGENASE [4]: 99.33 u/L | LIPASE [4]: 12 u/L | PHOSPHORUS [4]: 11 mg/dL | POTASSIUM [4]: 7.1 MEQ/L | SODIUM [4]: 144 MEQ/L | TOTAL BILIRUBIN [4]: 0.33 mg/dL | TOTAL PROTEIN [4]: 6.37 G/DL | URIC ACID [4]: 0.97 mg/dL | ABSOLUTE BASOPHIL [5]: 86.7 cells/µL | ABSOLUTE EOSINOPHIL [5]: 120 cells/µL | ABSOLUTE LYMPHOCYTE [5]: 11100 cells/µL | ABSOLUTE MONOCYTE [5]: 270 cells/µL | BASOPHIL [5]: 0.63% | EOSINOPHIL [5]: 0.9% | ERYTHROCYTE COUNT [5]: 7.18 x10E6/uL | HEMATOCRIT [5]: 44.8% | HEMOGLOBIN [5]: 14.83 G/DL | LEUKOCYTE COUNT [5]: 13.05 x10E3/uL | LYMPHOCYTE [5]: 85.27% | MEAN CORPUSCULAR HEMOGLOBIN [5]: 20.7 pg | MEAN CORPUSCULAR HEMOGLOBIN CONCENTRATION [5]: 33.13 G/DL | MEAN CORPUSCULAR VOLUME [5]: 62.43 fL | MONOCYTE [5]: 2.07% | NEUTROPHIL [5]: 10.57% | PLATELET COUNT [5]: 1282.67 x10E3/uL | ALANINE AMINOTRANSFERASE [5]: 66 u/L | ALBUMIN [5]: 3.73 G/DL | ALKALINE PHOSPHATASE [5]: 389.33 u/L | ASPARTATE AMINOTRANSFERASE [5]: 161.67 u/L | BLOOD UREA NITROGEN [5]: 16 mg/dL | CARBON DIOXIDE [5]: 40 mmol/L | CHLORIDE [5]: 106.67 MEQ/L | CHOLESTEROL [5]: 69.67 mg/dL | CREATINE PHOSPHOKINASE [5]: 169 u/L | CREATININE [5]: 0.4 mg/dL | GLUCOSE [5]: 172.33 mg/dL | LACTATE DEHYDROGENASE [5]: 94.33 u/L | LIPASE [5]: 11.33 u/L | PHOSPHORUS [5]: 10.2 mg/dL | POTASSIUM [5]: 6.1 MEQ/L | SODIUM [5]: 147.33 MEQ/L | TOTAL BILIRUBIN [5]: 0.3 mg/dL | TOTAL PROTEIN [5]: 6.03 G/DL | URIC ACID [5]: 0.97 mg/dL

From ChEMBL document CHEMBL3885881, “DrugMatrix”
